# Data published in paper PMC3196665 (Chemical biology & drug design, 2011).
# Like-named read-outs stand apart in the source and are kept apart here.
# Tests used:
# EphA4 Fc = EphA4 Fc (Mus musculus, UniProt Q03137); assay: ELISA: inhibition of ephrin-A5 AP binding to immobilized EphA4 Fc
# EphA2 [1] = target: T1, EphA2 (Homo sapiens, UniProt P29317); type: cell-based
# [2] = target: EphA4 AP binding to ephrin-A and ephrin-B ligands (Homo sapiens, UniProt P54764); conditions: ref [37]; cited from earlier work
# [3] = target: EphA4 ligand-binding domain (Homo sapiens, UniProt P54764); assay: 1H NMR of compound with increasing EphA4 ligand-binding domain; conditions: 10 mM phosphate buffer, pH 6.5; unmodified compound
# Eph receptors = conditions: ref [36]; cited from earlier work
# EphA5 = assay: ELISA: ephrin-A5 AP binding to immobilized EphA5 Fc
# EphA6 = assay: ELISA: ephrin-A5 AP binding to immobilized EphA6 Fc
# EphA7 = assay: ELISA: ephrin-A5 AP binding to immobilized EphA7 Fc
# EphB4 = assay: ELISA: ephrin-B2 AP binding to immobilized EphB4 Fc
# EphB6 = assay: ELISA: ephrin-B2 AP binding to immobilized EphB6 Fc
# EphA3 = assay: ELISA: ephrin-A5 AP binding to immobilized EphA3 Fc
# EphB1 = assay: ELISA: ephrin-B2 AP binding to immobilized EphB1 Fc
# EphB2 [4] = assay: ELISA: ephrin-B2 AP binding to immobilized EphB2 Fc
# EphB3 = assay: ELISA: ephrin-B2 AP binding to immobilized EphB3 Fc
# EphA2 [5] = assay: Ephrin-A1 Fc-induced EphA2 tyrosine phosphorylation in COS cells; type: cell-based
# EphA4 = EphA4 (Mus musculus, UniProt Q03137); assay: Ephrin-induced EphA4 tyrosine phosphorylation in HT22 neuronal cells; type: cell-based; conditions: ephrin-A5 Fc
# EphB2 [6] = assay: Ephrin-B2 Fc-induced EphB2 tyrosine phosphorylation in COS cells; type: cell-based
# PC3 cells = assay: PC3 cell retraction assay; type: cell-based
# EphA2 [7] = target: T1, EphA2; assay: TNFα-induced EphA2 tyrosine phosphorylation in HUVE cells; type: cell-based; conditions: 20 nM TNFα, 2 hours
# HUVE cells [8] = assay: Capillary-like tube formation of HUVECs on Matrigel; type: cell-based; conditions: 18 hours
# HUVE cells [9] = assay: MTT assay, HUVE cell viability; type: cell-based; conditions: 200 μM
# [10] = Stability of compound in DMSO, followed by ELISA IC50; type: physicochemical; conditions: DMSO at ≤ 10 mM, room temperature, after 4 days
# EphA2 [11] = tested on: EphA2
# T1 sequence (P29317 24-976): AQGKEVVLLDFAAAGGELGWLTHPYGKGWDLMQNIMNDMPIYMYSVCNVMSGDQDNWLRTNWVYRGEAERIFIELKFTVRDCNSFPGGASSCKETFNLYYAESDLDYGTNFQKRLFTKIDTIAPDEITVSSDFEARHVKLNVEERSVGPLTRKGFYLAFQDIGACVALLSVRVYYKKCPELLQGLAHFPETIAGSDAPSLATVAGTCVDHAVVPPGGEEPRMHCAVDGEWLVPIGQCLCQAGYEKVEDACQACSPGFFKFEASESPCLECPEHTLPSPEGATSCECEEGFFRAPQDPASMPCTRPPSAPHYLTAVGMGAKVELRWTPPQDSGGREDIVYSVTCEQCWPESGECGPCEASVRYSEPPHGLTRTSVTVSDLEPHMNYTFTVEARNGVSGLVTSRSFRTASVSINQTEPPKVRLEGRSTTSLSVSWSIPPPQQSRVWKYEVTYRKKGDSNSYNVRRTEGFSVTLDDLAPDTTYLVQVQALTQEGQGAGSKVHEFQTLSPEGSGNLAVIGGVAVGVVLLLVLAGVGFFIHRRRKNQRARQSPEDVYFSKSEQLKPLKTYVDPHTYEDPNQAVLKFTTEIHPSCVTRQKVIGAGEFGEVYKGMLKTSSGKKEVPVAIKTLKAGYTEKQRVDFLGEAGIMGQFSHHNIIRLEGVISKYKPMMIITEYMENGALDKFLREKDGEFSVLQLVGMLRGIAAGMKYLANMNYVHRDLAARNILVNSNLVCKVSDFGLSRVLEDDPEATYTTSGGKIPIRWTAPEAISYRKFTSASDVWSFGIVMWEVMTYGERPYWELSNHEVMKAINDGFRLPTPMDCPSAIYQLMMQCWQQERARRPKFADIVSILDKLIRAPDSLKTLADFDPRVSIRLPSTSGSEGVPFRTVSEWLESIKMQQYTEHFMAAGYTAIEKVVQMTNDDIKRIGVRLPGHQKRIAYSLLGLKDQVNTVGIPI
# EphA4 Fc, sequence (Q03137 20-547): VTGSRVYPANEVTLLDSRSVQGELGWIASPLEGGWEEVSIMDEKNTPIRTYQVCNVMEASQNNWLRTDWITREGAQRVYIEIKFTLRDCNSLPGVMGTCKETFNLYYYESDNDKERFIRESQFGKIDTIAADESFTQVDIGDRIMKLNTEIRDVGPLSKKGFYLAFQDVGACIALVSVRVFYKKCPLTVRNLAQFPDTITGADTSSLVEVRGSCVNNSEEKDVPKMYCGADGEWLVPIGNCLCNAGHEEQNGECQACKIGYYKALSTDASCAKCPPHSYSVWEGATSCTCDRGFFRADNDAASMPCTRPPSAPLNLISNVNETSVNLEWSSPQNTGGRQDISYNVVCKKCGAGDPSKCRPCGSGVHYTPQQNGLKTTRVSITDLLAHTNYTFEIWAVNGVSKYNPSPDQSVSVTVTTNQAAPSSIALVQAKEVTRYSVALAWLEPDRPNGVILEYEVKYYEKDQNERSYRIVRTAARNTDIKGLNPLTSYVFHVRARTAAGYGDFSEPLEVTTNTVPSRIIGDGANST
# EphA4 AP binding to ephrin-A and ephrin-B ligands, sequence (P54764 30-209 limits assumed): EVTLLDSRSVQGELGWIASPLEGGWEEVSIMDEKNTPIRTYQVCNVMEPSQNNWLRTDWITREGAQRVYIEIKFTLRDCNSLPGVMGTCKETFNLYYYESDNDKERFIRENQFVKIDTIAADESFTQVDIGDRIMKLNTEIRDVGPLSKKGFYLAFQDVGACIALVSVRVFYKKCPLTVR
# EphA4 ligand-binding domain, sequence (P54764 28-208): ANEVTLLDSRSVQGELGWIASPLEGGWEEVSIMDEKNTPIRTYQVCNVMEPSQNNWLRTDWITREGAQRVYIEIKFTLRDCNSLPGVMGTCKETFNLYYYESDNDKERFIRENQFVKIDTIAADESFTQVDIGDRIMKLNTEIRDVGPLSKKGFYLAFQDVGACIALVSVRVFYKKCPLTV
# EphA4, sequence (Q03137 20-986): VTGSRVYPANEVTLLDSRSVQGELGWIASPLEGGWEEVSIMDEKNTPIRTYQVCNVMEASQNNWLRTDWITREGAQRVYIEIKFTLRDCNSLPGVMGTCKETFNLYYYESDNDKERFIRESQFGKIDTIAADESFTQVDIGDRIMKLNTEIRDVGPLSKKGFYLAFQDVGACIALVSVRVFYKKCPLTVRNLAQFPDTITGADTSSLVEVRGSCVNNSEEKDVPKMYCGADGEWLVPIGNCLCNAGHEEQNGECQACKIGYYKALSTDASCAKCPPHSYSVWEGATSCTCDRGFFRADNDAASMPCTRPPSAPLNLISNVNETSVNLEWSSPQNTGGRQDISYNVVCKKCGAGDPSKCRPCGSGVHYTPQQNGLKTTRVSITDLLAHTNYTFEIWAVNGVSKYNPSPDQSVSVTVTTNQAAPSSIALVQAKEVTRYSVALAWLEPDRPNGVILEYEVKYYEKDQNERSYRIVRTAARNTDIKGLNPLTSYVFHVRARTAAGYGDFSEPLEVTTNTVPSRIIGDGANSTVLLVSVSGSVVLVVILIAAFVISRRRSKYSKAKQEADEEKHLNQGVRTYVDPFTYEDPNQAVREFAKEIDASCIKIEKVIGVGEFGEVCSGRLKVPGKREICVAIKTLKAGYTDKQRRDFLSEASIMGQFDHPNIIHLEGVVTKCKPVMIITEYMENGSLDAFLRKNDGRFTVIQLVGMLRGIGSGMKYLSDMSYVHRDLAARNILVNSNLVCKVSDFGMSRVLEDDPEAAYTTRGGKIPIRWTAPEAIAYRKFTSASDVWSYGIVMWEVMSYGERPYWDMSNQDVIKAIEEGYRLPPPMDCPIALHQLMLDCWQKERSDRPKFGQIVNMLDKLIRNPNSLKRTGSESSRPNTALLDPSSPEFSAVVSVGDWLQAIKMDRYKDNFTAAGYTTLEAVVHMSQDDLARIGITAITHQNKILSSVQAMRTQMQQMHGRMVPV
compound,measurement,setting,value
"Cc1ccc(C)n1-c1ccc(C(=O)O)c(O)c1 [Compound 1, reference compound]",Change of activity in ephrin-A5-EphA4 ELISA on storage,EphA4 Fc; dry form exposed to air at room temperature,becomes progressively more active
same,Inhibition of ephrin-A5 AP binding to EphA4 Fc,EphA4 Fc; newly synthesized preparation,did not show detectable inhibition
same,Inhibition of ephrin-A5 AP binding to EphA4 Fc,EphA4 Fc; purchased preparation,activity comparable to that previously reported
same,Inhibition of EphA2 phosphorylation in cells stimulated with ephrin-A1 Fc,"EphA2 [1]; newly synthesized preparation, PC3 cells",did not show detectable inhibition
same,Inhibition of EphA2 phosphorylation in cells stimulated with ephrin-A1 Fc,"EphA2 [1]; purchased preparation, PC3 cells",activity comparable to that previously reported
same,Inhibition of EphA4 AP binding to ephrin-A4 and ephrin-B2,[2],do not efficiently inhibit
same,Binding to EphA4 (resonance peak shifts of compound protons),[3],"some, albeit weak, ability to bind to EphA4"
C[C@H](CCC(=O)O)[C@H]1CC[C@H]2[C@@H]3CC[C@@H]4C[C@H](O)CC[C@]4(C)[C@H]3CC[C@]12C [lithocholic acid],Inhibition of Eph receptors,Eph receptors,inhibit with similar low potency all Eph receptors examined
"O=Cc1ccc(-c2ccc(O)c(C(=O)O)c2)o1 [Compound 76B8, 5-(5-formylfuran-2-yl)-2-hydroxybenzoic acid]",Inhibitory activity on ephrin-A5 AP binding to EphA4 Fc,EphA4 Fc,did not show detectable inhibitory activity
Cc1ccc(C)n1-c1ccc(O)c(C(=O)O)c1 [Compound 2],Inhibition of EphA4 AP binding to ephrin-A4 and ephrin-B2,[2],do not efficiently inhibit
"COC(=O)/C=C/c1ccc(-c2ccc(O)c(C(=O)OC)c2)o1 [Compound 76A5, (E)-methyl 2-hydroxy-5-(5-(3-methoxy-3-oxoprop-1-en-1-yl)furan-2-yl)benzoate]",Inhibitory activity on ephrin-A5 AP binding to EphA4 Fc,EphA4 Fc,did not show detectable inhibitory activity
O=C(/C=C/c1ccc(-c2ccc(O)c(C(=O)O)c2)o1)/C=C/c1ccc(-c2ccc(O)c(C(=O)O)c2)o1 [Compound 76D10],Selectivity among EphA and EphB receptors examined,EphA4 Fc,preferentially inhibits
same,Time to binding equilibrium after addition of ephrin-A5 AP with compound,EphA4 Fc,≤ 3 h
same,Inhibitory activity in the presence of BSA,EphA4 Fc; 0.1 mg/ml BSA,lost
same,Inhibitory activity in the presence of collagen,EphA4 Fc; 0.1 mg/ml collagen,not affected
same,Reversibility of binding to EphA4 in ELISA,"EphA4 Fc; 3 hour incubation, wash, 24 hours in binding buffer",does not appear to be reversible
same,Mode of inhibition (Bmax and KD of ephrin-A5 AP binding curves),EphA4 Fc; increasing 76D10 concentrations,consistent with competitive inhibition
same,Inhibition of ephrin-A5 binding to EphA5,EphA5,inhibits with substantial potency
same,Inhibition of ephrin-A5 binding to EphA6,EphA6,inhibits with substantial potency
same,Inhibition of ephrin-A5 binding to EphA7,EphA7,inhibits with substantial potency
same,Inhibition of ephrin-B2 binding to EphB4,EphB4,inhibits with substantial potency
same,Inhibition of ephrin-B2 binding to EphB6,EphB6,inhibits with substantial potency
same,Inhibition of ephrin binding to EphA3,EphA3,much lower to undetectable inhibitory activity
same,Inhibition of ephrin binding to EphB1,EphB1,much lower to undetectable inhibitory activity
same,Inhibition of ephrin binding to EphB2,EphB2 [4],much lower to undetectable inhibitory activity
same,Inhibition of ephrin binding to EphB3,EphB3,much lower to undetectable inhibitory activity
same,Inhibition of EphA2 tyrosine phosphorylation,EphA2 [5],inhibits tyrosine phosphorylation
same,Effect of BSA in culture medium on compound activity,"EphA2 [1]; 0.1 mg/mL BSA, COS and PC3 cells",inhibited the activity
same,Inhibition of EphA2 tyrosine phosphorylation,"EphA2 [1]; PC3 cells, ephrin-A1 Fc",inhibits tyrosine phosphorylation
same,Inhibition of EphA4 tyrosine phosphorylation,EphA4,inhibits EphA4 tyrosine phosphorylation
same,Inhibition of EphB2 tyrosine phosphorylation,EphB2 [6],not EphB2 tyrosine phosphorylation
same,Effect on cell morphology in the absence of ephrin,PC3 cells,does not affect cell morphology
same,Reversal of the effect of ephrin-A1 on cell area,PC3 cells; 25 μM,partially
same,Reversal of the effect of ephrin-A1 on cell area,PC3 cells; 50 μM,partially
same,Reversal of the effect of ephrin-A1 on cell area,PC3 cells; 100 μM,reverted completely
same,Inhibition of ephrin-A1 Fc-induced cell retraction,PC3 cells; concentrations between 25 and 100 μM,significantly counteracts these effects
same,Inhibition of EphA2 tyrosine phosphorylation in response to TNFα,EphA2 [7],inhibits EphA2 tyrosine phosphorylation
same,Inhibition of capillary-like tube formation,HUVE cells [8],inhibits capillary-like tube formation
same,HUVE cell viability (MTT),HUVE cells [9]; three days,minimally affected
same,HUVE cell viability (MTT),HUVE cells [9]; up to one day,not affected
same,Increase in IC50 values on storage in DMSO,[10],10 fold
same,Selectivity among EphA and EphB receptors examined,EphA2 [11],preferentially inhibits
